Series [1] is described as follows: Odor unpleasantness of samples exposed to malodorant solution, evaluated by a panel of expert graders. The settings on record: % relative unpleasantness vs. reference (malodorant solution = 100); 10 ml of 0.1% aqueous ammonia; 16 mg total odor control material; five expert graders, 4 replicates, 25° C. As for the experimental part:
For proving the synergistic effect on odor reduction several test samples are prepared by exposing them to a 0.1% aqueous solution of ammonia, which serves as a test malodorous substance. The first data point in table 2 serves as a benchmark as it represents the degree of unpleasantness of the ammonia solution without added odor control material. Data points 2-3 in table 2 are illustrating the malodor-reducing activity of two exemplary odor control materials alone, specifically alpha-amylcinnamaldehyde as exemplary aldehyde and menthyl acetate as an exemplary odor control material acting on the nose receptors. The last data point 4 in table 2 is illustrating the activity of the odor control system of the present invention. For comparability, two individual odor control materials were mixed at half their amount compared to data points 2-3. Data point 4 was obtained by testing a mixture of alpha-Amylcinnamaldehyde and menthyl acetate. […] Thus, synergistic odor control activity has been proven. Further, odor unpleasantness and pleasantness of these samples was evaluated by a panel of expert graders. In particular, five different expert graders evaluated 4 replicates for each sample. Odor unpleasantness was evaluated by using a scale from −10 to +0, where—10 indicates the max odor unpleasantness, 0 indicates no odor. […]

Series [2] can be described thus: Thermogravimetric analysis (TGA), weight loss over time at 40° C. It counts as physicochemical. The settings on record: samples kept at 40° C. for 180 minutes, mixture = menthyl acetate (10%) + silica gel (ex Grace, coded 123). On the procedure: The stabilization effect has been proven by running a Thermogravimetric analysis (TGA) on samples of narrow silica gel treated with 10 weight-% of menthyl acetate. Specifically, the method is based on evaluation of weight loss over time at specific temperature (40° C.). The samples were kept at 40° C. for 180 minutes. In order to have a basis for comparison the TGA analysis was performed on a sample of pure menthyl acetate and a sample of pure silica gel as references together with a sample of menthyl acetate (10%)+silica gel (ex Grace, coded 123).

As for `CCCCCC(C=O)=Cc1ccccc1` [Alpha-Amylcinnamaldehyde, alpha-amylcinnamaldehyde], the Odor unpleasantness in series [1] was 64%. Take `CC(=O)OC1CC(C)CCC1C(C)C` (stereo not drawn) [Menthyl acetate, menthyl acetate]: the “Weight Loss” value in series [2] is on record as approximately 100%. Besides, the Odor unpleasantness in series [1] turned out to be 46%.

The values are drawn from US8835511B2, “Absorbent articles including an odor control system” (The Procter & Gamble Company, priority 2007, dated 2014).
